# Test results taken from patent US20020137929A1, “1 - (3-heterocyclylphenyl) isothiourea, -isourea, -guanidine and -amidine herbicidal agents” (Intellectual Property Department, BASF Aktiengesellschaft, priority 1998, published 2002).
# Tests used:
# [1] = tested on: ECHORC (Watergrass (Calif.)); test: Postemergence weed control under flooded paddy conditions; format: in vivo, Echinochloa oryzoides; details: postemergence weeds, 3-4 weeks after treatment
# In short: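 Containers holding 3–5 cm weeds and rice at 1.5–2.5 leaves are flooded to 1.5–3 cm above soil. Compound in 50/50 v/v aqueous/acetone is then added directly to the water, about 0.0313–0.500 kg/ha. Plants are kept in the greenhouse and rated 0–9 visually at 3–4 weeks.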
# ABUTH (Velvetleaf) = test: Postemergence herbicidal evaluation; format: in vivo, Abutilon theophrasti
# In short: (§1)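 Rate range approx. 0.0156–0.500 kg/ha. Foliar application at 40 psi to ~2-week seedlings; surfactant 0.5% TWEEN 20 in 50/50 acetone/water. Evaluation 4–5 wk post-treatment by 0–9 visual injury score, means of replicate tests.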
# ECHCG (Barnyardgrass) [2] = test: Preemergence herbicidal evaluation; format: in vivo, Echinochloa crus-galli; details: rated 4-5 weeks after treatment
# In short: (§2)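 Seeds were planted in potting soil in cups, then sprayed preemergence with the test compound in aqueous acetone at about 0.0156 to 0.500 kg per hectare. Cups were kept under greenhouse conditions and visually rated 4–5 weeks after treatment on a 0–9 scale against an untreated control.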
# [3] = tested on: IPOHE (Morningglory, Ivyleaf); test: Preemergence herbicidal evaluation; format: in vivo, Ipomoea hederacea; details: rated 4-5 weeks after treatment
# In short: as §2
# ZEAMX (Corn, Field) = test: Preemergence herbicidal evaluation; format: in vivo, Zea mays; details: rated 4-5 weeks after treatment
# In short: as §2
# SETVI (Foxtail, Green) = test: Postemergence herbicidal evaluation; format: in vivo, Setaria viridis
# In short: as §1
# ECHCG (Barnyardgrass) [4] = test: Postemergence herbicidal evaluation; format: in vivo, Echinochloa crus-galli
# In short: as §1
# GALAP (Galium) = test: Preemergence herbicidal evaluation; format: in vivo, Galium aparine; details: rated 4-5 weeks after treatment
# In short: as §2
# [5] = tested on: GLXMAW (Soybean, Williams); test: Postemergence herbicidal evaluation; format: in vivo, Glycine max, (L.) Merr. cv Williams
# In short: as §1
# [6] = tested on: CHEAL (Lambsquarters, Common); test: Preemergence herbicidal evaluation; format: in vivo, Chenopodium album; details: rated 4-5 weeks after treatment
# In short: as §2
# AMBEL (Ragweed, Common) = test: Postemergence herbicidal evaluation; format: in vivo, Ambrosia artemisifolia
# In short: as §1
# CASOB (Sicklepod) = test: Preemergence herbicidal evaluation; format: in vivo, Cassia obtusifolia; details: rated 4-5 weeks after treatment
# In short: as §2
# [7] = tested on: IPOHE (Morningglory, Ivyleaf); test: Postemergence herbicidal evaluation; format: in vivo, Ipomoea hederacea
# In short: as §1
# [8] = tested on: TRZAWR (Wheat, Winter, cv Riband); test: Postemergence herbicidal evaluation; format: in vivo, Triticum aestivum
# In short: as §1
compound,measurement,setting,value
"CCOC(=O)CN1C(=O)C(CC(=O)O)O/C1=N/c1cc(-n2c(=O)cc(C(F)(F)F)n(C)c2=O)c(F)cc1Cl (stereo not shown) [Compound 41, 2-{{2-Chloro-5-[3,6-dihydro-3-methyl-2,6-dioxo-4-(trifluoromethyl)-1(2H)-pyrimidinyl]-4-fluoro-phenyl}imino}-4-oxo-3,5-oxazolidinediacetic acid, 3-ethyl ester]",Herbicidal rating ECHORC,[1]; rate 0.0313 kg/ha,3.0
same,Herbicidal rating ECHORC,[1]; rate 0.0625 kg/ha,4.0
same,Herbicidal rating ECHORC,[1]; rate 0.1250 kg/ha,6.0
same,Herbicidal rating ECHORC,[1]; rate 0.2500 kg/ha,7.0
same,Postemergence herbicidal rating ABUTH,ABUTH (Velvetleaf); Rate 0.0158 kg/ha,9.0
same,Postemergence herbicidal rating ABUTH,ABUTH (Velvetleaf); Rate 0.0315 kg/ha,9.0
same,Postemergence herbicidal rating ABUTH,ABUTH (Velvetleaf); Rate 0.0630 kg/ha,9.0
same,Preemergence herbicidal rating ECHCG,ECHCG (Barnyardgrass) [2]; rate 0.0156 kg/ha,0.0
same,Preemergence herbicidal rating ECHCG,ECHCG (Barnyardgrass) [2]; rate 0.0313 kg/ha,0.0
same,Preemergence herbicidal rating ECHCG,ECHCG (Barnyardgrass) [2]; rate 0.0625 kg/ha,0.0
same,Preemergence herbicidal rating ECHCG,ECHCG (Barnyardgrass) [2]; rate 0.1250 kg/ha,0.0
same,Preemergence herbicidal rating ECHCG,ECHCG (Barnyardgrass) [2]; rate 0.2500 kg/ha,2.0
same,Preemergence herbicidal rating IPOHE,[3]; rate 0.0156 kg/ha,0.0
same,Preemergence herbicidal rating IPOHE,[3]; rate 0.0313 kg/ha,0.0
same,Preemergence herbicidal rating IPOHE,[3]; rate 0.0625 kg/ha,7.0
same,Preemergence herbicidal rating IPOHE,[3]; rate 0.1250 kg/ha,9.0
same,Preemergence herbicidal rating IPOHE,[3]; rate 0.2500 kg/ha,9.0
same,Preemergence herbicidal rating ZEAMX,"ZEAMX (Corn, Field); rate 0.0156 kg/ha",0.0
same,Preemergence herbicidal rating ZEAMX,"ZEAMX (Corn, Field); rate 0.0313 kg/ha",0.0
same,Preemergence herbicidal rating ZEAMX,"ZEAMX (Corn, Field); rate 0.0625 kg/ha",1.0
same,Preemergence herbicidal rating ZEAMX,"ZEAMX (Corn, Field); rate 0.1250 kg/ha",0.0
same,Preemergence herbicidal rating ZEAMX,"ZEAMX (Corn, Field); rate 0.2500 kg/ha",2.0
same,Postemergence herbicidal rating SETVI,"SETVI (Foxtail, Green); Rate 0.0158 kg/ha",1.0
same,Postemergence herbicidal rating SETVI,"SETVI (Foxtail, Green); Rate 0.0315 kg/ha",3.0
same,Postemergence herbicidal rating SETVI,"SETVI (Foxtail, Green); Rate 0.0630 kg/ha",9.0
same,Postemergence herbicidal rating ECHCG,ECHCG (Barnyardgrass) [4]; Rate 0.0158 kg/ha,2.0
same,Postemergence herbicidal rating ECHCG,ECHCG (Barnyardgrass) [4]; Rate 0.0315 kg/ha,7.0
same,Postemergence herbicidal rating ECHCG,ECHCG (Barnyardgrass) [4]; Rate 0.0630 kg/ha,9.0
same,Preemergence herbicidal rating GALAP,GALAP (Galium); rate 0.0156 kg/ha,0.0
same,Preemergence herbicidal rating GALAP,GALAP (Galium); rate 0.0625 kg/ha,0.0
same,Preemergence herbicidal rating GALAP,GALAP (Galium); rate 0.1250 kg/ha,0.0
same,Preemergence herbicidal rating GALAP,GALAP (Galium); rate 0.2500 kg/ha,0.0
same,Postemergence herbicidal rating GLXMAW,[5]; Rate 0.0158 kg/ha,8.0
same,Postemergence herbicidal rating GLXMAW,[5]; Rate 0.0315 kg/ha,8.0
same,Postemergence herbicidal rating GLXMAW,[5]; Rate 0.0630 kg/ha,9.0
same,Preemergence herbicidal rating CHEAL,[6]; rate 0.0156 kg/ha,0.0
same,Preemergence herbicidal rating CHEAL,[6]; rate 0.0313 kg/ha,4.0
same,Preemergence herbicidal rating CHEAL,[6]; rate 0.0625 kg/ha,9.0
same,Preemergence herbicidal rating CHEAL,[6]; rate 0.1250 kg/ha,9.0
same,Preemergence herbicidal rating CHEAL,[6]; rate 0.2500 kg/ha,9.0
same,Postemergence herbicidal rating AMBEL,"AMBEL (Ragweed, Common); Rate 0.0158 kg/ha",9.0
same,Postemergence herbicidal rating AMBEL,"AMBEL (Ragweed, Common); Rate 0.0315 kg/ha",9.0
same,Postemergence herbicidal rating AMBEL,"AMBEL (Ragweed, Common); Rate 0.0630 kg/ha",9.0
same,Preemergence herbicidal rating CASOB,CASOB (Sicklepod); rate 0.0156 kg/ha,0.0
same,Preemergence herbicidal rating CASOB,CASOB (Sicklepod); rate 0.0313 kg/ha,0.0
same,Preemergence herbicidal rating CASOB,CASOB (Sicklepod); rate 0.0625 kg/ha,0.0
same,Preemergence herbicidal rating CASOB,CASOB (Sicklepod); rate 0.1250 kg/ha,9.0
same,Preemergence herbicidal rating CASOB,CASOB (Sicklepod); rate 0.2500 kg/ha,9.0
same,Postemergence herbicidal rating IPOHE,[7]; Rate 0.0158 kg/ha,9.0
same,Postemergence herbicidal rating IPOHE,[7]; Rate 0.0315 kg/ha,9.0
same,Postemergence herbicidal rating IPOHE,[7]; Rate 0.0630 kg/ha,9.0
same,Postemergence herbicidal rating TRZAWR,[8]; Rate 0.0158 kg/ha,4.0
same,Postemergence herbicidal rating TRZAWR,[8]; Rate 0.0315 kg/ha,4.0
same,Postemergence herbicidal rating TRZAWR,[8]; Rate 0.0630 kg/ha,5.0
"CCOC(=O)COc1ccccc1CC1S/C(=N/c2cc(-n3c(=O)cc(C(F)(F)F)n(C)c3=O)c(F)cc2Cl)N(CC(=O)OCC)C1=O (stereo not shown) [Compound 42, 2-{{2-Chloro-5-[3,6-dihydro-3-methyl-2,6-dioxo-4-(trifluoromethyl)-1(2H)-pyrimidinyl]-4-fluoro-phenyl}imino}-5-(o-hydroxybenzyl)-4-oxo-3-thiazolidineacetic acid, ethyl ester, ester with ethyl glycolate]",Herbicidal rating ECHORC,[1]; rate 0.0313 kg/ha,5.0
same,Herbicidal rating ECHORC,[1]; rate 0.0625 kg/ha,5.0
same,Herbicidal rating ECHORC,[1]; rate 0.1250 kg/ha,5.0
same,Herbicidal rating ECHORC,[1]; rate 0.2500 kg/ha,6.0
same,Postemergence herbicidal rating ABUTH,ABUTH (Velvetleaf); Rate 0.0158 kg/ha,9.0
same,Postemergence herbicidal rating ABUTH,ABUTH (Velvetleaf); Rate 0.0315 kg/ha,9.0
same,Postemergence herbicidal rating ABUTH,ABUTH (Velvetleaf); Rate 0.0630 kg/ha,9.0
same,Preemergence herbicidal rating ECHCG,ECHCG (Barnyardgrass) [2]; rate 0.0313 kg/ha,0.0
same,Preemergence herbicidal rating ECHCG,ECHCG (Barnyardgrass) [2]; rate 0.0625 kg/ha,0.0
same,Preemergence herbicidal rating ECHCG,ECHCG (Barnyardgrass) [2]; rate 0.1250 kg/ha,0.0
same,Preemergence herbicidal rating ECHCG,ECHCG (Barnyardgrass) [2]; rate 0.2500 kg/ha,0.0
same,Preemergence herbicidal rating IPOHE,[3]; rate 0.0313 kg/ha,0.0
same,Preemergence herbicidal rating IPOHE,[3]; rate 0.0625 kg/ha,0.0
same,Preemergence herbicidal rating IPOHE,[3]; rate 0.1250 kg/ha,0.0
same,Preemergence herbicidal rating IPOHE,[3]; rate 0.2500 kg/ha,0.0
same,Preemergence herbicidal rating ZEAMX,"ZEAMX (Corn, Field); rate 0.0313 kg/ha",0.0
same,Preemergence herbicidal rating ZEAMX,"ZEAMX (Corn, Field); rate 0.0625 kg/ha",1.0
same,Preemergence herbicidal rating ZEAMX,"ZEAMX (Corn, Field); rate 0.1250 kg/ha",0.0
same,Preemergence herbicidal rating ZEAMX,"ZEAMX (Corn, Field); rate 0.2500 kg/ha",1.0
same,Postemergence herbicidal rating SETVI,"SETVI (Foxtail, Green); Rate 0.0158 kg/ha",0.0
same,Postemergence herbicidal rating SETVI,"SETVI (Foxtail, Green); Rate 0.0315 kg/ha",1.0
same,Postemergence herbicidal rating SETVI,"SETVI (Foxtail, Green); Rate 0.0630 kg/ha",1.0
same,Postemergence herbicidal rating ECHCG,ECHCG (Barnyardgrass) [4]; Rate 0.0158 kg/ha,1.0
same,Postemergence herbicidal rating ECHCG,ECHCG (Barnyardgrass) [4]; Rate 0.0315 kg/ha,2.0
same,Postemergence herbicidal rating ECHCG,ECHCG (Barnyardgrass) [4]; Rate 0.0630 kg/ha,4.0
same,Preemergence herbicidal rating GALAP,GALAP (Galium); rate 0.0313 kg/ha,0.0
same,Preemergence herbicidal rating GALAP,GALAP (Galium); rate 0.0625 kg/ha,0.0
same,Preemergence herbicidal rating GALAP,GALAP (Galium); rate 0.1250 kg/ha,0.0
same,Preemergence herbicidal rating GALAP,GALAP (Galium); rate 0.2500 kg/ha,0.0
same,Postemergence herbicidal rating GLXMAW,[5]; Rate 0.0158 kg/ha,5.5
same,Postemergence herbicidal rating GLXMAW,[5]; Rate 0.0315 kg/ha,6.0
same,Postemergence herbicidal rating GLXMAW,[5]; Rate 0.0630 kg/ha,6.5
same,Preemergence herbicidal rating CHEAL,[6]; rate 0.0313 kg/ha,0.0
same,Preemergence herbicidal rating CHEAL,[6]; rate 0.0625 kg/ha,1.0
same,Preemergence herbicidal rating CHEAL,[6]; rate 0.1250 kg/ha,3.0
same,Preemergence herbicidal rating CHEAL,[6]; rate 0.2500 kg/ha,9.0
same,Postemergence herbicidal rating AMBEL,"AMBEL (Ragweed, Common); Rate 0.0158 kg/ha",9.0
same,Postemergence herbicidal rating AMBEL,"AMBEL (Ragweed, Common); Rate 0.0315 kg/ha",9.0
same,Postemergence herbicidal rating AMBEL,"AMBEL (Ragweed, Common); Rate 0.0630 kg/ha",9.0
same,Preemergence herbicidal rating CASOB,CASOB (Sicklepod); rate 0.0313 kg/ha,0.0
same,Preemergence herbicidal rating CASOB,CASOB (Sicklepod); rate 0.0625 kg/ha,1.0
same,Preemergence herbicidal rating CASOB,CASOB (Sicklepod); rate 0.1250 kg/ha,0.0
same,Preemergence herbicidal rating CASOB,CASOB (Sicklepod); rate 0.2500 kg/ha,0.0
same,Postemergence herbicidal rating IPOHE,[7]; Rate 0.0158 kg/ha,9.0
same,Postemergence herbicidal rating IPOHE,[7]; Rate 0.0315 kg/ha,9.0
same,Postemergence herbicidal rating IPOHE,[7]; Rate 0.0630 kg/ha,9.0
same,Postemergence herbicidal rating TRZAWR,[8]; Rate 0.0158 kg/ha,3.5
same,Postemergence herbicidal rating TRZAWR,[8]; Rate 0.0315 kg/ha,3.5
same,Postemergence herbicidal rating TRZAWR,[8]; Rate 0.0630 kg/ha,3.5
